Values of other authors in patent US11229674B1, “Nutraceuticals for suppressing indolamine 2,3 deoxygenase” (Therapeutic Solutions International, Inc., priority 2020, dated 2022).

What was measured:
IDO [1] = target: T1, IDO (Mus musculus, UniProt P28776); details: mice, combined with chemotherapeutic agents
T1 construct: host or cells: tumour-bearing mice (whole animal)

IDO [2] = target: T1, IDO; details: pregnant mice, allogeneic fetuses

T1 sequence (P28776 whole entry): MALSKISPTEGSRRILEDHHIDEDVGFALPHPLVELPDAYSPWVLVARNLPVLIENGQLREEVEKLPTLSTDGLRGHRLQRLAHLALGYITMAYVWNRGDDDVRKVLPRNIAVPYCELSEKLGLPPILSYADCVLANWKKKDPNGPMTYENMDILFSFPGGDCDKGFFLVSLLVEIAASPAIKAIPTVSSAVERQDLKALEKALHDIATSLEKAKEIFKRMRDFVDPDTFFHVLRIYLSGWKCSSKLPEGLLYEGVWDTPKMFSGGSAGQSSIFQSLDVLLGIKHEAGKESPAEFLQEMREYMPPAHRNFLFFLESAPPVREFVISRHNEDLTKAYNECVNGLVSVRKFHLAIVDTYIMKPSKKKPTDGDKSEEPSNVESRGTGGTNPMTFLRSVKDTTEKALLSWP

In the case of Cn1cc(CC(N)C(=O)O)c2ccccc21 (centres unmarked) [1MT], the Tumor growth (IDO [1]) is given as “synergize with chemotherapeutic agents to reduce tumor growth” and the Fetal allograft rejection (IDO [2]) is given as “rapid, T cell-induced rejection of all allogeneic concept”.
